Results as given in US20050267136A1, “Method of inhibiting dihydrofolate reductase; screening assay for the identification of novel therapeutics and their cellular targets” (McMaster University, priority 2003, published 2005).
Converted amounts (≈) assume the structure as drawn. Read-outs that look alike come from different tables or passages of the source.

How the values were obtained:
E. coli MC1061 = experiment: Minimum inhibitory concentration determination in LB broth; assay type: cell-based, Escherichia coli
[1] = tested on: MC1061 transformed with the genomic library (the screening pool); assay type: cell-based, Escherichia coli; settings: LB agar-ST; concentration lethal to MC1061
E. coli MC1061/pGEM7 = experiment: microbe, parasite or virus in culture; assay type: cell-based, Escherichia coli; settings: for MIC: Escherichia coli, MC1061/PGEM7, read-out: MIC, minimum growth inhibitory concentration
[2] = tested on: S. cerevisiae DL1 (His, Leu, Ura)/pGAL; experiment: MIC of compounds versus yeast; assay type: cell-based; settings: Saccharomyces cerevisiae; agar plates, 72 hours, read visually
[3] = tested on: E. coli MC1061 harboring a multicopy genomic library cloned into pGEM7; experiment: Multicopy suppression selection with the selection pool, Example 5; assay type: cell-based, Escherichia coli; settings: LB-Str-Amp agar, 10^5 cells
E. coli strain MC1061 [4] = experiment: Duplicate screen of 1000 Maybridge compounds for growth inhibition; assay type: cell-based, Escherichia coli; settings: 10 μL of 1 mM compound in 200 μL/well, 36 hours at 37° C., OD 600 nm
Method: In addition to proof of principle work using well-characterized antibiotics a preliminary screen against a 1000 compound, non-proprietary commercial library from Maybridge (Cornwall, England) was also done. First the identification of compounds with activity against E. coli by screening for inhibition of growth was done. […] To each test well 10 μL of screening compound (1 mM in DMSO) was added and the plate incubated for 36 hours at 37° C. with shaking (150 rpm) before reading the optical density (600 nm). […] The result of this duplicate screen was the identification of 15 compounds with statistically significant antibacterial activity.

E. coli strain MC1061 [5] = experiment: Retest minimum inhibitory concentration on LB-ST agar; settings: Escherichia coli, MC1061, read-out: Retest Minimum Inhibitory Concentration
[6] = tested on: E. coli MC1061 clones harboring pGEM7-acrB; assay type: cell-based, Escherichia coli; settings: from MIC in LB-Str-Amp, relative to E. coli MC1061 containing pGEM7
E. coli DHFR [7] = molecular target: T1, E. coli DHFR (Escherichia coli, UniProt P0ABQ4); experiment: Determination of kinetic inhibition constants; assay type: biochemical; settings: NADPH 80 μM, dihydrofolate 10 to 300 μM, competitive inhibition
T1 construct: The gene was cloned lacking a stop codon into NdeI and XhoI digested pET26b to form pET26b-folA; made in house

E. coli DHFR [8] = molecular target: T1, E. coli DHFR; experiment: DHF reductase activity assay of recombinant E. coli DHFR (decrease of NADPH at 340 nm); primary screen and IC50 determination; assay type: biochemical; settings: true competitive inhibitor should equal 2.8
[9] = tested on: E. coli CW2553 containing pAK01 and pBAD18-folA (strain EB492); settings: increasing DHFR expression from pBAD18-folA
[10] = Escherichia coli, MC1061, 16 hr at 37° C., OD600 less than 0.1, read-out: MIC
[11] = 16 hr at 37° C., OD600 less than 0.1

Row | SMILES | MIC (E. coli MC1061; [10]) [µg/mL] | Growth in Primary Screens, first value of the duplicate (E. coli strain MC1061 [4]) [%] | Growth in Primary Screens, second value of the duplicate (E. coli strain MC1061 [4]) [%] | MIC (E. coli strain MC1061 [5]) [µg/mL] | other results
1 | Nc1nc(N)c2c(Oc3ccc(F)cc3)cccc2n1 [Compound 3] | 16 (≈ 59.2 µM) |  |  |  | 
2 | N[C@@H]1CON=C1O [Cycloserine, D-cycloserine] |  |  |  |  | growth inhibitory concentration to which clones isolated from the screening pool were resistant [1]: 160 µg/mL; MIC (E. coli MC1061/pGEM7): 80 µg/mL (≈ 784 µM)
3 | OC(Cn1cncn1)(Cn1cncn1)c1ccc(F)cc1F [Fluconazole] |  |  |  |  | MIC [2]: 32 µg/mL
4 | COc1cc(Cc2cnc(N)nc2N)cc(OC)c1OC [Trimethoprim] | 0.03 (≈ 0.103 µM) |  |  |  | concentration at which suppressor clones were evident [3]: 0.64 µg/mL; MIC (E. coli MC1061/pGEM7): 0.078 µg/mL (≈ 0.269 µM); MIC, minimum growth inhibitory concentration (E. coli MC1061/pGEM7; LB agar containing ampicillin (50 μg/mL) and streptomycin (50 μg/mL)): 0.078 µg/mL (≈ 0.269 µM)
5 | C[C@@H]1O[C@@H]1P(=O)(O)O [Fosfomycin] |  |  |  |  | growth inhibitory concentration to which clones isolated from the screening pool were resistant [1]: 320 µg/mL; MIC (E. coli MC1061/pGEM7): 80 µg/mL (≈ 579 µM)
6 | N#CC(C#N)=NNc1cc(C(F)(F)F)cc(C(F)(F)F)c1 [SEW04978] |  | 0.2 | 0.02 | 32 (≈ 105 µM) | growth inhibitory concentration to which clones isolated from the screening pool were resistant [1]: 64 µg/mL
7 | Cc1ccc(Sc2cccc3nc(N)nc(N)c23)cc1 [Compound 1] | 8 (≈ 28.3 µM) |  |  |  | 
8 | CC1CCc2c(N)nc(N)nc2C1 (stereo not drawn) [Compound 6] | 64 (≈ 359 µM) |  |  |  | fold suppression by pGEM7-acrB [6]: 4 fold; Ki (E. coli DHFR [7]): 1100 nM; IR, IC50 ratio (IC50 in the presence of 100 μM DHF) / (IC50 in the presence of 30 μM DHF) (E. coli DHFR [8]): 2.3
9 | Nc1nc(-c2ccc(-n3cccc3)cc2)cc(C(F)(F)F)n1 [BTB14887] |  | 37 | 30 | 125 (≈ 411 µM) | 
10 | CSC(=N)NC(=S)Nc1cccc(Cl)c1 [RJF01047] |  | 6.0 | 12 | 125 (≈ 481 µM) | 
11 | Nc1nc(N)c2c(Sc3ccc(Cl)cc3)cccc2n1 [Compound 2] | 4 (≈ 13.2 µM) |  |  |  | MIC (E. coli MC1061; [11]): 4.0 µg/mL (≈ 13.2 µM)
12 | O=C(Oc1c(Cl)cc(Cl)c2cccnc12)c1cccs1 [RH00852] |  | 2.7 | 2.8 | 16 (≈ 49.4 µM) | 
13 | Clc1ccc(Cc2n[nH]cc2Sc2ccc(Cl)cc2)cc1 [SPB04137] |  | 2.3 | 2.1 | 500 (≈ 1490 µM) | 
14 | Cc1ccc(Oc2cccc3nc(N)nc(N)c23)cc1 [Compound 4] | 4 (≈ 15 µM) |  |  |  | MIC (E. coli MC1061; [11]): 4.0 µg/mL (≈ 15 µM); dependence of the MIC on arabinose (inducer) concentration [9]: demonstrated an inducer dependence
